Consider 18 compounds from patent US20250288573A1 (H. LEE MOFFITT CANCER CENTER AND RESEARCH INSTITUTE, INC., priority 2018, published 2025).

Structures are written as SMILES. Where two headings read alike, the source gives them in different places.

One assay addresses T1, CRBN (Homo sapiens, UniProt Q96SW2).
T1 construct: endogenous in cells; host or cells: primary human T cells / CD8+ T cells from peripheral blood
As to the kind of experiment: Western blot for expression of CRBN relative to vinculin in human T cells (CRBN degradation). Format: cell-based. The settings on record: for remaining activity at 10 µM / remaining activity at 0.01 µM: read-out: Relative Density of CRBN (% of DMSO); for remaining activity at 0.01 µM: 24 h. The source says: Bortez=bortezomib; MG132=proteasome inhibitor; MLN4924=NEDD8 inhibitor.
This assay is a standard Western blot assay for expression of CRBN relative to vinculin.
[…] 0.1 percent DMSO was used as a vehicle control.
For orientation: Immunoblotting shows a protein as a band on a membrane.

Assay [1] deals with T2, cereblon (CRBN) (Homo sapiens, UniProt Q96SW2). As to the kind of experiment: Kd and % inhibition from FI. The class given is binding. The settings on record: for Kd: FI, read-out: Kd (FI) (converted); for inhibition at 200 µM: read-out: % inhibition @ 200 uM from *FI.
Assay [2] concerns the target T2, cereblon (CRBN). Kind of assay: Kd from ITC. Format: binding.
Assay [3] addresses T3, cereblon (CRBN) (Mus musculus, UniProt Q8C7D2).
T3 construct: endogenous in cells; host or cells: mouse CD8+ T cells
T3 sequence (Q8C7D2 1-445): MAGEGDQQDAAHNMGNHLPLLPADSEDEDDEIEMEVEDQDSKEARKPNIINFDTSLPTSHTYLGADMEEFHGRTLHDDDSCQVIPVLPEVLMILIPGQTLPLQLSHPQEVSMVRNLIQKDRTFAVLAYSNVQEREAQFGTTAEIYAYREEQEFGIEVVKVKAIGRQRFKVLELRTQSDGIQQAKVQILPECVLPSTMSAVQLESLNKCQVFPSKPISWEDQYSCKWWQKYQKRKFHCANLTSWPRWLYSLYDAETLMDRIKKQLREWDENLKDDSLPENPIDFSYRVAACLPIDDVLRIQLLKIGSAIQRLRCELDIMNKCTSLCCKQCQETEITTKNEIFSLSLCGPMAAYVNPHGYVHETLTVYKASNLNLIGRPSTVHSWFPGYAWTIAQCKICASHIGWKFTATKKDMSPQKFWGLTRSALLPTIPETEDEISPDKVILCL
Kind of assay: Western blot of cereblon (CRBN) levels in mouse CD8+ T cells. The settings on record: 24 hours of treatment. Format: cell-based.

The target in a further assay is T4, cereblon (Mus musculus, UniProt Q8C7D2).
T4 construct: from tissue; host or cells: spleen: purified splenic T cells and total splenocytes of treated mice
T4 sequence (Q8C7D2 1-445): T3 sequence (Q8C7D2 1-445)
Kind of assay: Western blot of cereblon in splenic T cells / splenocytes of mice treated orally with a single dose. The class given is in vivo. The settings on record: single oral dose of 75 mg/kg. As for the experimental part:
FIG. 24 is a graph of results from Western blots from purified splenic T cells of mice treated orally with a single dose of 75 mg/kg SM2-145. Three mice were obtained from each time point (1, 6, 12, and 24 hrs) after treatment.
FIG. 25 contains a Western blot analysis of purified T cells from mice treated orally with a single dose of 75 mg/kg EC2-035 and EC2-134.

T1 sequence (Q96SW2 whole entry): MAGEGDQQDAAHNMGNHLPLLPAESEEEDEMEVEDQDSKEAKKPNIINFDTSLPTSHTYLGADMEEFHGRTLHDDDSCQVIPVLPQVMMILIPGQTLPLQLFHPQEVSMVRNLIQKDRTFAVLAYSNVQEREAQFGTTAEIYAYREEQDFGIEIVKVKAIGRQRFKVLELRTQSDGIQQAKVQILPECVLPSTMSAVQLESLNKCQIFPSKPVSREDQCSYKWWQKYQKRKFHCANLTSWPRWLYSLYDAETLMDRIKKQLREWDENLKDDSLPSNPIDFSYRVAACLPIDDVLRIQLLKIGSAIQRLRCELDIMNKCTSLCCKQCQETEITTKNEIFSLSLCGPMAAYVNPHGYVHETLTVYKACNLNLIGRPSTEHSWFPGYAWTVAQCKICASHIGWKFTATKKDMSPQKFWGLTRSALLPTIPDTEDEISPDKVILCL
T2 sequence (Q96SW2 whole entry, species assumed): as the sequence (Q96SW2 whole entry) above

One may read the Kd as the concentration at which binding is half-saturated. The term inhibition denotes the change of the read-out against control, counted positive when it falls. On to `O=C(COc1cccc2c1C(=O)N(C1CCC(=O)NC1=O)C2=O)NCCOCCOCCNC(=O)COc1cccc2c1C(=O)N(C1CCC(=O)NC1=O)C2=O` (centres unmarked) [SM2-048], for which the remaining activity at 10 µM on CRBN turned out to be 15.8%. The remaining activity at 0.01 µM on CRBN (10nM, human T cells, 24 hours) was 99.5%. In addition, the “CRBN expression (Western blot)” value on CRBN (anti-CD3/anti-CD28 stimulated human T cells, 0.1, 1, and 10 μM) was “significant reduction in CRBN expression”. The Kd at cereblon (CRBN) [1] is 11.3 µM; on cereblon (CRBN) [2] it was 12.3 ± 0.4 µM. For the same compound, the inhibition at 200 µM at cereblon (CRBN) [1] stood at 68.2 ± 3.33%.
`O=C1CCC(N2Cc3c(NC(=O)CCCCCCCCC(=O)Nc4cccc5c4CN(C4CCC(=O)NC4=O)C5=O)cccc3C2=O)C(=O)N1` (centres unmarked) [EC1-152, N^1,N^10-Bis(2-(2,6-dioxopiperidin-3-yl)-1-oxoisoindolin-4-yl)decanediamide]: the remaining activity at 10 µM at CRBN was found to be 28.2%. Further, the remaining activity at 0.01 µM on CRBN (10nM, human T cells, 24 hours) was found to be 133%. On cereblon (CRBN) [1], the Kd was 15.5 ± 2.26 µM and the inhibition at 200 µM was found to be 47.9 ± 2%.
Taken in the same sequence, the figures for `O=C1CCC(N2Cc3c(CCCOCCOCCOCCOCCOCCCc4cccc5c4CN(C4CCC(=O)NC4=O)C5=O)cccc3C2=O)C(=O)N1` (centres unmarked) [SM2-156, 3,3′-((4,7,10,13,16-Pentaoxanonadecane-1,19-diyl)bis(1-oxoisoindoline-4,2-diyl))bis(piperidine-2,6-dione)] were 33.4%, 56.8%, 11.2 ± 0.53 µM and 79.5 ± 2.29%.
For the compound `O=C1CCC(N2C(=O)c3cccc(NC(=O)CCCCCC(=O)Nc4cccc5c4C(=O)N(C4CCC(=O)NC4=O)C5=O)c3C2=O)C(=O)N1` (centres unmarked) [EC1-119, N^1,N^7-bis(2-(2,6-Dioxopiperidin-3-yl)-1,3-dioxoisoindolin-4-yl)heptanediamide], the remaining activity at 10 µM on CRBN was 4.91%. Also, at CRBN (10nM, human T cells, 24 hours), the remaining activity at 0.01 µM was 30.5%. In addition, at cereblon (CRBN) [1], the inhibition at 200 µM amounted to 18 ± 20%.
For `O=C1CCC(N2C(=O)c3cccc(NC(=O)CCCCCCC(=O)Nc4cccc5c4C(=O)N(C4CCC(=O)NC4=O)C5=O)c3C2=O)C(=O)N1` (centres unmarked), the remaining activity at 10 µM on CRBN came to 11.7%. On CRBN (10nM, human T cells, 24 hours), the remaining activity at 0.01 µM was determined as 44.2%. Also, the “% inhibition @ 200 uM from *FI” value on cereblon (CRBN) [1] is on record as “n.b”.
In the case of `O=C1CCC(N2Cc3c(NC(=O)CCCC(=O)Nc4cccc5c4CN(C4CCC(=O)NC4=O)C5=O)cccc3C2=O)C(=O)N1` (centres unmarked) [EC1-148, N^1,N^5-Bis(2-(2,6-dioxopiperidin-3-yl)-1-oxoisoindolin-4-yl)glutaramide], the remaining activity at 10 µM on CRBN was found to be 2.97%. On CRBN (10nM, human T cells, 24 hours), the remaining activity at 0.01 µM was 73.8%. On cereblon (CRBN) [1], the Kd is 23.6 ± 2.55 µM and the inhibition at 200 µM stood at 83.6 ± 4%.
Consider `O=C1CCC(N2C(=O)c3cccc(NC(=O)CCCCCCCC(=O)Nc4cccc5c4C(=O)N(C4CCC(=O)NC4=O)C5=O)c3C2=O)C(=O)N1` (centres unmarked), for which the remaining activity at 10 µM on CRBN was determined as 6.19%. Besides, the remaining activity at 0.01 µM on CRBN (10nM, human T cells, 24 hours) is 29.8%. Further, on cereblon (CRBN) [1], the “% inhibition @ 200 uM from *FI” value was “n.b”.
Consider `O=C1CCC(N2Cc3c(CCCOCCCc4cccc5c4CN(C4CCC(=O)NC4=O)C5=O)cccc3C2=O)C(=O)N1` (centres unmarked) [SM2-144, 3,3′-((Oxybis(propane-3,1-diyl))bis(1-oxoisoindoline-4,2-diyl))bis(piperidine-2,6-dione)], for which, on CRBN, the remaining activity at 10 µM was found to be 3.05%. Besides, the remaining activity at 0.01 µM at CRBN (10nM, human T cells, 24 hours) stood at 24.1%. Besides, at cereblon (CRBN) [1], the Kd is 5.88 µM and the inhibition at 200 µM was determined as 73.9 ± 14.9%. In addition, on cereblon (CRBN) [2], binding was put at a Kd of 4.4 ± 1.4 µM.
`O=C(CCc1cccc2c1CN(C1CCC(=O)NC1=O)C2=O)NCCOCCNC(=O)CCc1cccc2c1CN(C1CCC(=O)NC1=O)C2=O` (centres unmarked) [SM3-010, N,N′-(Oxybis(ethane-2,1-diyl))bis(3-(2-(2,6-dioxopiperidin-3-yl)-1-oxoisoindolin-4-yl)propanamide)]: the remaining activity at 10 µM on CRBN turned out to be 86.9%. In addition, the remaining activity at 0.01 µM at CRBN (10nM, human T cells, 24 hours) was found to be 119%. Also, at cereblon (CRBN) [1], the Kd is 14.3 ± 0.52 µM and the inhibition at 200 µM turned out to be 72.4 ± 0.84%.
For the compound `COCCOCCCc1cccc2c1CN(C1CCC(=O)NC1=O)C2=O` (centres unmarked) [SM3-095, 3-(4-(3-(2-Methoxyethoxy)propyl)-1-oxoisoindolin-2-yl)piperidine-2,6-dione], the “cereblon (CRBN) levels (Western blot)” value at cereblon (CRBN) [3] is listed as “not”.
Regarding `O=C1CCC(N2C(=O)c3cccc(NC(=O)[C@H]4CC[C@H](C(=O)Nc5cccc6c5C(=O)N(C5CCC(=O)NC5=O)C6=O)CC4)c3C2=O)C(=O)N1` (stereo partly drawn) [EC1-135, (trans)-N^1,N^4-bis(2-(2,6-Dioxopiperidin-3-yl)-1,3-dioxoisoindolin-4-yl)cyclohexane-1,4-dicarboxamide], the remaining activity at 10 µM on CRBN worked out at 36.5%. Besides, the remaining activity at 0.01 µM at CRBN (10nM, human T cells, 24 hours) is 134%. Further, the “% inhibition @ 200 uM from *FI” value at cereblon (CRBN) [1] is “n.b”.
With `O=C1CCC(N2Cc3c(C#CCOCCOCC#Cc4cccc5c4CN(C4CCC(=O)NC4=O)C5=O)cccc3C2=O)C(=O)N1` (centres unmarked) [SY4-065], at CRBN, the remaining activity at 10 µM worked out at 136%. The remaining activity at 0.01 µM on CRBN (10nM, human T cells, 24 hours) was 1.75%. Moreover, on cereblon (CRBN) [1] (cell does not state FI or ITC), the “Kd (A) FI/ITC” value is “n.b”.
On to `O=C1CCC(N2Cc3c(NCc4ccc(CNc5cccc6c5CN(C5CCC(=O)NC5=O)C6=O)cc4)cccc3C2=O)C(=O)N1` (centres unmarked) [EC2-035, 3,3′-(((1,4-Phenylenebis(methylene))bis(azanediyl))bis(1-oxoisoindoline-4,2-diyl))bis(piperidine-2,6-dione)], for which the remaining activity at 10 µM at CRBN was found to be 99.7%. The remaining activity at 0.01 µM at CRBN (10nM, human T cells, 24 hours) worked out at 2.32%. Also, the “cereblon levels in purified splenic T cells” value at cereblon was “sustained reduction in cereblon levels at 6, 9 and 12 hours”.
In the case of `O=C1CCC(N2Cc3c(NC(=O)CCCCCCC(=O)Nc4cccc5c4CN(C4CCC(=O)NC4=O)C5=O)cccc3C2=O)C(=O)N1` (centres unmarked) [EC1-150, N^1,N^8-Bis(2-(2,6-dioxopiperidin-3-yl)-1-oxoisoindolin-4-yl)octanediamide], the remaining activity at 10 µM at CRBN turned out to be 6.33%. For the same compound, the remaining activity at 0.01 µM on CRBN (10nM, human T cells, 24 hours) stood at 99.3%. In addition, on cereblon (CRBN) [1], the Kd was 18.3 ± 1.54 µM and the inhibition at 200 µM was 57.2 ± 10%.
For `O=C1CC[C@H](N2Cc3c(C#CCOCCOCC#Cc4cccc5c4CN([C@H]4CCC(=O)NC4=O)C5=O)cccc3C2=O)C(=O)N1` [XS01-008B2, (3S,3'S)-3,3′-(((Ethane-1,2-diylbis(oxy))bis(prop-1-yne-3,1-diyl))bis(1-oxoisoindoline-4,2-diyl))bis(piperidine-2,6-dione)], the remaining activity at 0.01 µM on CRBN (10nM, human T cells, 24 hours) is 11.8%. Moreover, the Kd on cereblon (CRBN) [1] is 2.53 ± 1.53 µM.
Regarding `O=C(COc1cccc2c1C(=O)N(C1CCC(=O)NC1=O)C2=O)NCCCCNC(=O)COc1cccc2c1C(=O)N(C1CCC(=O)NC1=O)C2=O` (centres unmarked) [SY2-060, N,N′-(Butane-1,4-diyl)bis(2-((2-(2,6-dioxopiperidin-3-yl)-1,3-dioxoisoindolin-4-yl)oxy)acetamide)], on CRBN, the remaining activity at 0.01 µM was 104%. Further, on cereblon (CRBN) [1], the inhibition at 200 µM is 1.52 ± 1.91%.
Regarding `O=C1CCC(N2Cc3c(NC(=O)CCCCCCCC(=O)Nc4cccc5c4CN(C4CCC(=O)NC4=O)C5=O)cccc3C2=O)C(=O)N1` (centres unmarked) [EC1-151, N^1,N^9-Bis(2-(2,6-dioxopiperidin-3-yl)-1-oxoisoindolin-4-yl)nonanediamide], the remaining activity at 10 µM at CRBN stood at 32%. In addition, at CRBN (10nM, human T cells, 24 hours), the remaining activity at 0.01 µM stood at 137%. On cereblon (CRBN) [1], the Kd was 14.2 ± 3.16 µM and the inhibition at 200 µM was determined as 46.7 ± 9%.
In the case of `O=C1CCC(N2Cc3c(NC(=O)CCCCC(=O)Nc4cccc5c4CN(C4CCC(=O)NC4=O)C5=O)cccc3C2=O)C(=O)N1` (centres unmarked) [EC1-149, N^1,N^6-Bis(2-(2,6-dioxopiperidin-3-yl)-1-oxoisoindolin-4-yl)adipamide], the remaining activity at 10 µM at CRBN was 1.74%. In addition, the remaining activity at 0.01 µM at CRBN (10nM, human T cells, 24 hours) is 76.3%. Moreover, at cereblon (CRBN) [1], the Kd was 22.8 ± 0.55 µM and the inhibition at 200 µM was found to be 87.3 ± 2%.
